Data: ChEMBL document CHEMBL4152357, “Efflux pump inhibition by 11H-pyrido[2,1-b]quinazolin-11-one analogues in mycobacteria” (Bioorg Med Chem, 2018)
Converted amounts (≈) assume the structure as drawn. The source made the active and inactive calls. The calls are words filed in the database; no cut-off is given here.

How the values were obtained:
[1] = test system: Mycolicibacterium smegmatis; experiment: Growth inhibition of Mycobacterium smegmatis MC2 155 ATCC 700084 after 72 hrs by MTT assay; format: organism-based
[2] = biological target: T1, Multidrug efflux pump LfrA (Mycobacterium smegmatis (strain ATCC 700084 / mc(2)155)) (UniProt A0R5K5); experiment: Inhibition of LfrA in Mycobacterium smegmatis MC2 155 ATCC 700084 assessed as decrease in EtBr MIC at 0.78 ug/ml after 72 hrs by MTT assay relative to control; conditions: Mycolicibacterium smegmatis MC2 155
T1 sequence (whole entry): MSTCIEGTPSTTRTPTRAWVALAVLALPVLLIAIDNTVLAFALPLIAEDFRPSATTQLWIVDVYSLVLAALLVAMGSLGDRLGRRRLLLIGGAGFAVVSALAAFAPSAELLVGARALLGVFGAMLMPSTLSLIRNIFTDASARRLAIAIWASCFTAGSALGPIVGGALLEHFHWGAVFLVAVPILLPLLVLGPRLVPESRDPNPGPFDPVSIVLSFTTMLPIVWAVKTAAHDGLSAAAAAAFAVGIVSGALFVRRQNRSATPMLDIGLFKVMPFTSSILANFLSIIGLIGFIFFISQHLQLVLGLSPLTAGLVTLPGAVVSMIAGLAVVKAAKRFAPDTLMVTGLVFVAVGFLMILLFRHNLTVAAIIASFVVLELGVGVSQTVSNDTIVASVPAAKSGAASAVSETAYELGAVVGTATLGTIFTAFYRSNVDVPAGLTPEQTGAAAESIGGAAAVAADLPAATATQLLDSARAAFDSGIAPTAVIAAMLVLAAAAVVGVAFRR

[3] = biological target: T1, Multidrug efflux pump LfrA (Mycobacterium smegmatis (strain ATCC 700084 / mc(2)155)); experiment: Inhibition of LfrA in Mycobacterium smegmatis MC2 155 ATCC 700084 assessed as decrease in norfloxacin MIC at 12.5 ug/ml after 72 hrs by MTT assay relative to control; conditions: Mycolicibacterium smegmatis MC2 155
[4] = biological target: T1, Multidrug efflux pump LfrA (Mycobacterium smegmatis (strain ATCC 700084 / mc(2)155)); experiment: Inhibition of LfrA in Mycobacterium smegmatis MC2 155 ATCC 700084 assessed as potentiation of norfloxacin-induced bactericidal activity at 100 ug/ml after 48 hrs; conditions: Mycolicibacterium smegmatis MC2 155
[5] = biological target: T1, Multidrug efflux pump LfrA (Mycobacterium smegmatis (strain ATCC 700084 / mc(2)155)); experiment: Inhibition of LfrA in Mycobacterium smegmatis MC2 155 ATCC 700084 assessed as potentiation of norfloxacin-induced bactericidal activity at 12.5 ug/ml after 48 hrs; conditions: Mycolicibacterium smegmatis MC2 155
CC-1 = experiment: Cytotoxicity against rat CC1 cells assessed as decrease in cell survival at 200 ug/ml after 24 hrs by Alamar blue reduction assay relative to control; format: cell-based; conditions: cc-1, 24 h
[6] = Cytotoxicity against rat CC1 cells assessed as cell survival at 100 ug/ml after 24 hrs by Alamar blue reduction assay relative to control; format: cell-based, CC-1; conditions: read-out: Survival
[7] = Cytotoxicity against rat CC1 cells assessed as cell survival at 50 ug/ml after 24 hrs by Alamar blue reduction assay relative to control; format: cell-based, CC-1; conditions: read-out: Survival
[8] = biological target: T1, Multidrug efflux pump LfrA (Mycobacterium smegmatis (strain ATCC 700084 / mc(2)155)); experiment: Inhibition of LfrA in Mycobacterium smegmatis MC2 155 ATCC 700084 assessed as increase in norfloxacin accumulation at 25 ug/ml measured every 5 mins for 35 mins by fluorometric analysis; conditions: Mycolicibacterium smegmatis MC2 155
[9] = biological target: T1, Multidrug efflux pump LfrA (Mycobacterium smegmatis (strain ATCC 700084 / mc(2)155)); experiment: Inhibition of LfrA in Mycobacterium smegmatis MC2 155 ATCC 700084 assessed as decrease in EtBr MIC at 100 ug/ml after 72 hrs by MTT assay relative to control; conditions: Mycolicibacterium smegmatis MC2 155
[10] = biological target: T1, Multidrug efflux pump LfrA (Mycobacterium smegmatis (strain ATCC 700084 / mc(2)155)); experiment: Inhibition of LfrA in Mycobacterium smegmatis MC2 155 ATCC 700084 assessed as potentiation of EtBr-induced bactericidal activity at 100 ug/ml after 24 hrs; conditions: Mycolicibacterium smegmatis MC2 155
[11] = biological target: T1, Multidrug efflux pump LfrA (Mycobacterium smegmatis (strain ATCC 700084 / mc(2)155)); experiment: Inhibition of LfrA in Mycobacterium smegmatis MC2 155 ATCC 700084 assessed as increase in EtBr accumulation at 25 ug/ml measured every 5 mins for 35 mins by fluorometric analysis; conditions: Mycolicibacterium smegmatis MC2 155
[12] = biological target: T1, Multidrug efflux pump LfrA (Mycobacterium smegmatis (strain ATCC 700084 / mc(2)155)); experiment: Inhibition of LfrA in Mycobacterium smegmatis MC2 155 ATCC 700084 assessed as increase in EtBr accumulation at 50 ug/ml measured every 5 mins for 35 mins by fluorometric analysis; conditions: Mycolicibacterium smegmatis MC2 155
[13] = biological target: T1, Multidrug efflux pump LfrA (Mycobacterium smegmatis (strain ATCC 700084 / mc(2)155)); experiment: Inhibition of LfrA in Mycobacterium smegmatis MC2 155 ATCC 700084 assessed as decrease in norfloxacin MIC at 100 ug/ml after 72 hrs by MTT assay relative to control; conditions: Mycolicibacterium smegmatis MC2 155
[14] = biological target: T1, Multidrug efflux pump LfrA (Mycobacterium smegmatis (strain ATCC 700084 / mc(2)155)); experiment: Inhibition of LfrA in Mycobacterium smegmatis MC2 155 ATCC 700084 assessed as potentiation of norfloxacin-induced bactericidal activity at 25 ug/ml after 24 to 48 hrs; conditions: Mycolicibacterium smegmatis MC2 155
[15] = biological target: T1, Multidrug efflux pump LfrA (Mycobacterium smegmatis (strain ATCC 700084 / mc(2)155)); experiment: Inhibition of LfrA in Mycobacterium smegmatis MC2 155 ATCC 700084 assessed as decrease in norfloxacin MIC at 25 ug/ml after 72 hrs by MTT assay relative to control; conditions: Mycolicibacterium smegmatis MC2 155
[16] = biological target: T1, Multidrug efflux pump LfrA (Mycobacterium smegmatis (strain ATCC 700084 / mc(2)155)); experiment: Inhibition of LfrA in Mycobacterium smegmatis MC2 155 ATCC 700084 assessed as potentiation of EtBr-induced bactericidal activity at 100 ug/ml after 48 hrs; conditions: Mycolicibacterium smegmatis MC2 155

Row | SMILES | MIC [1] [µg/mL] | fold change (FC) [3] | fractional inhibitory concentration index (FICI) [3] | Activity (CC-1) [%] | viability at 24 h, 100 ug/ml [6] [%] | viability at 24 h, 50 ug/ml [7] [%] | Activity [8] [FU] | fold change (FC) [9] | fractional inhibitory concentration index (FICI) [9] | inhibition [10] | inhibition [11] | Activity [12] [FU] | fold change (FC) [15] | fractional inhibitory concentration index (FICI) [15] | further results
1 | O=c1c2cccc(F)c2nc2ccccn12 | 200 (≈ 934 µM) | 16 | 0.12 | > 50 | 93 | 96 | 3000 |  |  |  |  |  |  |  | fold change (FC) [2]: 2; fractional inhibitory concentration index (FICI) [2]: 0.3; Activity (deltalog10CFU/ml) [4]: 4; Activity (deltalog10CFU/ml) [5]: 4
2 | Cc1cccn2c(=O)c3ccccc3nc12 | 200 (≈ 951 µM) | 4 | 0.3 | > 50 | 81 | 45 |  | 8 | 0.62 | Active | Active | 250 |  |  | 
3 | COc1ccc(CCN(C)CCCC(C#N)(c2ccc(OC)c(OC)c2)C(C)C)cc1OC (centres undefined) [VERAPAMIL] | 300 (≈ 660 µM) |  |  |  |  |  |  |  |  |  |  |  |  |  | 
4 | O=c1c2ccc(Cl)cc2nc2ccccn12 | 200 (≈ 867 µM) |  |  | > 50 | 70 | 80 | 18000 | 8 | 0.62 | Active | Active | 248 |  |  | fold change (FC) [13]: 8; fractional inhibitory concentration index (FICI) [13]: 0.62; Activity (deltalog10CFU/ml) [4]: 4
5 | O=c1c2ccc(F)cc2nc2ccccn12 | 200 (≈ 934 µM) | 2 | 0.56 |  |  |  |  |  |  |  |  |  |  |  | 
6 | O=c1c2ccccc2nc2ccccn12 | 200 (≈ 1020 µM) |  |  | > 50 | 70 | 86 | 2000 | 8 | 0.62 | Active | inactive | < 150 | 8 | 0.25 | Activity (deltalog10CFU/ml) [14]: > 3; inhibition [16]: Active
7 | Cc1ccn2c(=O)c3cc(Br)ccc3nc2c1 | 200 (≈ 692 µM) |  |  |  |  |  |  |  |  |  |  |  | 4 | 0.37 | fold change (FC) [2]: 2; fractional inhibitory concentration index (FICI) [2]: 0.3
8 | O=c1c2ccccc2nc2c(F)cc(F)cn12 | 200 (≈ 861 µM) | 4 | 0.3 | > 50 | 52 | 80 |  | 16 | 0.5 | Active | Active | > 255 |  |  | 
9 | O=c1c2cccc(Cl)c2nc2c3ccccc3ccn12 | 200 (≈ 712 µM) |  |  |  |  |  |  | 2 | 1 |  |  |  | 4 | 0.37 | 
